Reference: ChEMBL document CHEMBL1909046, “DrugMatrix in vitro pharmacology data”

Columns and labels:
[1] = target: T1, Alpha-1B adrenergic receptor (Rattus norvegicus, UniProt P15823); assay: DRUGMATRIX: Alpha-1B adrenergic receptor radioligand binding (ligand: prazosin); assay type: cell membranes, Wistar, Liver, Membrane; conditions: Not Active = under 50% inhibition at 10 µM
T1 sequence (P15823 whole entry): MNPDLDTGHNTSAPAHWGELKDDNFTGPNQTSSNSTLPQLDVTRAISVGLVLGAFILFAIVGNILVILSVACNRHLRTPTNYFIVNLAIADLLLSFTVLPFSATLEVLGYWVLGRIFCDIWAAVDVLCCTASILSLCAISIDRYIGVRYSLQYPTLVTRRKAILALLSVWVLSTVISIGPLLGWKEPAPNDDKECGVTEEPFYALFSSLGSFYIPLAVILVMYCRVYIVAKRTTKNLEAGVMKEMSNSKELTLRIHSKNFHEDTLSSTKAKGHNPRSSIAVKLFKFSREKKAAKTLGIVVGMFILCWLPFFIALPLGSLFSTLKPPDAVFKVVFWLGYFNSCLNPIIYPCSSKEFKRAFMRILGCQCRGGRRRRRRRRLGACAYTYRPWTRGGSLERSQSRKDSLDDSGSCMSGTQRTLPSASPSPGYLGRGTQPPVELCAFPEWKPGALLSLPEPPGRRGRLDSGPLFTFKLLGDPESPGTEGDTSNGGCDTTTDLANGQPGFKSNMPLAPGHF

[2] = target: T2, Type-2 angiotensin II receptor (Homo sapiens, UniProt P50052); assay type: cell-based; conditions: cho-k1; also: in other assays of this panel Not Active means under 50% inhibition at 10 µM
T2 sequence (P50052 whole entry): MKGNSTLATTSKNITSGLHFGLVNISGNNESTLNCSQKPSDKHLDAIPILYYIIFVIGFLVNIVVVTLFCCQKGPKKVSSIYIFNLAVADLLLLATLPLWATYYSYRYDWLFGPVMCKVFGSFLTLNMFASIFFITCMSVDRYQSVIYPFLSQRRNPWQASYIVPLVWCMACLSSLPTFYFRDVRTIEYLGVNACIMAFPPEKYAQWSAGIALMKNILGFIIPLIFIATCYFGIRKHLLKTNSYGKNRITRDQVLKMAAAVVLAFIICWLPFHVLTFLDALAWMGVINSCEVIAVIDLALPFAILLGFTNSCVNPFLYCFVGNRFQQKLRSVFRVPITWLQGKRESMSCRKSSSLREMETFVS

[3] = target: T3, C-C chemokine receptor type 4 (Homo sapiens, UniProt P51679); assay type: cell membranes, Membrane; conditions: chem-1; also: in other assays of this panel Not Active means under 50% inhibition at 10 µM
T3 sequence (P51679 whole entry): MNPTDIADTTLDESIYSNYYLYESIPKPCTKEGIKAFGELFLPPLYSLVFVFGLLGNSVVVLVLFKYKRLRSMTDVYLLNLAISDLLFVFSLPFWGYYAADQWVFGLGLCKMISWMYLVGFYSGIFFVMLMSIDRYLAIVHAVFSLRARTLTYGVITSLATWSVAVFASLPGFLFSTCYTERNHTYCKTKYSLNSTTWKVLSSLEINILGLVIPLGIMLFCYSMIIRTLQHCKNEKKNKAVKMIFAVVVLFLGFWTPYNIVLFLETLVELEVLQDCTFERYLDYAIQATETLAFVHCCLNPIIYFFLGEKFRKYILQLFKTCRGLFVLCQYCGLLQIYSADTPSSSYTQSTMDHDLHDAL

[4] = target: T4, Neuropeptide Y receptor type 1 (Homo sapiens, UniProt P25929); assay type: cell membranes, Membrane; conditions: sk-n-mc; also: in other assays of this panel Not Active means under 50% inhibition at 10 µM
T4 sequence (P25929 whole entry): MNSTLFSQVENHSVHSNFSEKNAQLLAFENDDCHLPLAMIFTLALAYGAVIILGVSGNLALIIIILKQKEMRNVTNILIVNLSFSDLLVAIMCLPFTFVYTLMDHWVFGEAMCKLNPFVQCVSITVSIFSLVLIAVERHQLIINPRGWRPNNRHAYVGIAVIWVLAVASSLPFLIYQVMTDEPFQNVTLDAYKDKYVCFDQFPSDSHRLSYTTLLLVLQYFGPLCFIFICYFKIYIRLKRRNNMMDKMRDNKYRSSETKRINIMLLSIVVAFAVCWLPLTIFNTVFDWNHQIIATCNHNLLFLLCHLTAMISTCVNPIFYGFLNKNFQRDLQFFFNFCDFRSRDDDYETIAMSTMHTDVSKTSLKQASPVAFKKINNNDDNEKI

Interstitial collagenase = target: T5, Interstitial collagenase (Homo sapiens, UniProt P03956); assay type: tissue-based, Rheumatoid synovial fibroblasts;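 also: MMP-1 enzyme inhibition assay using a peptide substrate; in other assays of this panel Not Active means under 50% inhibition at 10 µM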
T5 sequence (P03956 whole entry): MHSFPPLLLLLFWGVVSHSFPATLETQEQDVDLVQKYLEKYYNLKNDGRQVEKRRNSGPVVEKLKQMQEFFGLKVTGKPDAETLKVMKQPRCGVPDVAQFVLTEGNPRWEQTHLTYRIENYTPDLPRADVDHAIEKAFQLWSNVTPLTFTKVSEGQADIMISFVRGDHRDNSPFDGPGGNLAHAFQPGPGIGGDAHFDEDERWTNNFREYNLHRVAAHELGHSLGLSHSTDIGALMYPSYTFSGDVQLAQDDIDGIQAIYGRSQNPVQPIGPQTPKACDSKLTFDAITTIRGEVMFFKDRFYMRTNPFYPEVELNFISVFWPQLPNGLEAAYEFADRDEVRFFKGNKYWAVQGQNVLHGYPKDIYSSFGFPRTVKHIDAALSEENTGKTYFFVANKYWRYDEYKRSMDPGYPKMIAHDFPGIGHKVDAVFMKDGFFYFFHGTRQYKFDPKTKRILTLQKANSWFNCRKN

[5] = target: Receptor tyrosine-protein kinase erbB-2 (Homo sapiens, UniProt P04626); assay: biochemical; assay type: cell-based, Insect cells; conditions: insect cells
Adenosine receptor A2a = Adenosine receptor A2a (Homo sapiens, UniProt P29274); assay: DRUGMATRIX: Adenosine A2A radioligand binding (ligand: […]); assay type: cell membranes, HEK293, Membrane; conditions: hek293; Not Active = under 50% inhibition at 10 µM
Sequence of Adenosine receptor A2a (P29274 whole entry): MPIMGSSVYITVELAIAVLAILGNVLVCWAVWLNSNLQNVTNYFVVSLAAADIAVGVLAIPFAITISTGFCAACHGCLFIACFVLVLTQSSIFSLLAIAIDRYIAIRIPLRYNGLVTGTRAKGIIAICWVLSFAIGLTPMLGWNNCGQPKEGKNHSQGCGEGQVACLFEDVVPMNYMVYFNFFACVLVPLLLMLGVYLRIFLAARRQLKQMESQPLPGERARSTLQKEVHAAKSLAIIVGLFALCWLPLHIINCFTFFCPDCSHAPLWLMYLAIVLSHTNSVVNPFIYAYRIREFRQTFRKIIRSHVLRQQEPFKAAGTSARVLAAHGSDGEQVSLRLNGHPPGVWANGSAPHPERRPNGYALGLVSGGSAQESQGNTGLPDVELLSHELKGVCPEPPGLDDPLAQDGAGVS

Nc1ccc(S(=O)(=O)Nc2nccs2)cc1 [SULFATHIAZOLE]
Not Active: IC50 [1] | IC50 [2] | IC50 [3] | IC50 [4] | IC50 (Interstitial collagenase) | IC50 [5] | IC50 (Adenosine receptor A2a)

C[C@]12CC[C@H]3[C@@H](CCC4=CC(=O)CC[C@@]43C)[C@@H]1CC[C@@H]2O [TESTOSTERONE]
Not Active: IC50 [1] | IC50 [2] | IC50 [3] | IC50 [4] | IC50 (Interstitial collagenase) | IC50 [5] | IC50 (Adenosine receptor A2a)

CC(C)(C)NC[C@H](O)COc1nsnc1N1CCOCC1 [TIMOLOL]
Not Active: IC50 [1] | IC50 [2] | IC50 [3] | IC50 [4] | IC50 (Interstitial collagenase) | IC50 [5] | IC50 (Adenosine receptor A2a)

CCS(=O)(=O)CCn1c([N+](=O)[O-])cnc1C [TINIDAZOLE]
Not Active: IC50 [1] | IC50 [2] | IC50 [3] | IC50 [4] | IC50 (Interstitial collagenase) | IC50 [5] | IC50 (Adenosine receptor A2a)

C[C@@H]1C[C@H]2[C@@H]3CCC4=CC(=O)C=C[C@]4(C)C3=CC[C@]2(C)[C@H]1C(=O)CN1CCN(c2cc(N3CCCC3)nc(N3CCCC3)n2)CC1 [TIRILAZAD]
Not Active: IC50 [1] | Ki [2] | IC50 [3] | IC50 [4] | IC50 (Interstitial collagenase) | IC50 [5] | IC50 (Adenosine receptor A2a)

NC[C@H]1O[C@H](O[C@H]2[C@H](O)[C@@H](O[C@H]3O[C@H](CO)[C@@H](O)[C@H](N)[C@H]3O)[C@H](N)C[C@@H]2N)[C@H](N)C[C@@H]1O [TOBRAMYCIN]
Not Active: IC50 [1] | IC50 [2] | IC50 [3] | IC50 [4] | IC50 (Interstitial collagenase) | IC50 [5] | IC50 (Adenosine receptor A2a)

O=C(O)C(Cl)(Cl)Cl [TRICHLOROACETIC ACID]
Not Active: IC50 [1] | IC50 [2] | IC50 [3] | IC50 [4] | IC50 (Interstitial collagenase) | IC50 [5] | IC50 (Adenosine receptor A2a)

COc1ccc(CN2CCNCC2)c(OC)c1OC [TRIMETAZIDINE]
Not Active: IC50 [1] | IC50 [2] | IC50 [3] | IC50 [4] | IC50 (Interstitial collagenase) | IC50 [5] | IC50 (Adenosine receptor A2a)

CC(=O)O[C@H]1C[C@@H]2CC[C@@H]3[C@H](CC[C@@]4(C)[C@H]3C[C@H]([N+]3(C)CCCCC3)[C@@H]4OC(C)=O)[C@@]2(C)C[C@@H]1N1CCCCC1.[Br-] [VECURONIUM BROMIDE]
Not Active: IC50 [1] | IC50 [2] | IC50 [3] | IC50 [4] | IC50 (Interstitial collagenase) | IC50 [5] | IC50 (Adenosine receptor A2a)

COc1cc(C(=O)NS(=O)(=O)c2ccccc2C)ccc1Cc1cn(C)c2ccc(NC(=O)OC3CCCC3)cc12 [ZAFIRLUKAST]
Not Active: IC50 [1] | IC50 [2] | IC50 [3] | IC50 [4] | IC50 (Interstitial collagenase) | IC50 [5] | IC50 (Adenosine receptor A2a)

Cc1cn([C@H]2C[C@H](N=[N+]=[N-])[C@@H](CO)O2)c(=O)[nH]c1=O [ZIDOVUDINE]
Not Active: IC50 [1] | IC50 [2] | IC50 [3] | IC50 [4] | IC50 (Interstitial collagenase) | IC50 [5] | IC50 (Adenosine receptor A2a)

STANNOUS FLUORIDE
Not Active: IC50 [1] | Ki [1] | IC50 [2] | Ki [2] | IC50 [3] | Ki [3] | IC50 [4] | Ki [4] | IC50 (Interstitial collagenase) | Ki (Interstitial collagenase) | IC50 [5] | Ki [5] | IC50 (Adenosine receptor A2a) | Ki (Adenosine receptor A2a)

THIMEROSAL
Not Active: IC50 [1] | Ki [1] | IC50 [2] | Ki [2] | IC50 [3] | Ki [3] | IC50 [4] | Ki [4] | IC50 (Interstitial collagenase) | Ki (Interstitial collagenase) | IC50 [5] | Ki [5] | IC50 (Adenosine receptor A2a) | Ki (Adenosine receptor A2a)
